Experimental data: patent US20150105252A1, “SUBSTITUTED PYRAZOLES AS HERBICIDES” (E I DU PONT DE NEMOURS AND COMPANY, priority 2013, published 2015)

What was measured:
barnyardgrass [1] = test: Test A preemergence; assay type: in vivo, Echinochloa crus-galli
Summary of the method: (§1)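 After sowing in a sand–loam mix, pots received compound preemergence by directed soil spray, or postemergence once plants reached the one- to two-leaf stage (2–10 cm). Formulation contained surfactant in a non-phytotoxic solvent. Injury was scored visually after ~10 greenhouse days, 0–100 scale.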

crabgrass, large [2] = test: Test A preemergence; assay type: in vivo, Digitaria sanguinalis
Summary of the method: as §1

foxtail, giant [3] = test: Test A preemergence; assay type: in vivo, Setaria faberii
Summary of the method: as §1

morningglory [4] = test: Test A preemergence; assay type: in vivo, Ipomoea spp.
Summary of the method: as §1

pigweed [5] = test: Test A preemergence; assay type: in vivo, Amaranthus retroflexus
Summary of the method: as §1

velvetleaf [6] = test: Test A preemergence; assay type: in vivo, Abutilon theophrasti
Summary of the method: as §1

wheat [7] = test: Test A preemergence; assay type: in vivo, Triticum aestivum; conditions: preemergence
Summary of the method: as §1

corn [8] = test: Test A preemergence; assay type: in vivo, Zea mays
Summary of the method: as §1

barnyardgrass [9] = test: Test A postemergence; assay type: in vivo, Echinochloa crus-galli
Summary of the method: as §1

crabgrass, large [10] = test: Test A postemergence; assay type: in vivo, Digitaria sanguinalis
Summary of the method: as §1

foxtail, giant [11] = test: Test A postemergence; assay type: in vivo, Setaria faberii
Summary of the method: as §1

morningglory [12] = test: Test A postemergence; assay type: in vivo, Ipomoea spp.
Summary of the method: as §1

pigweed [13] = test: Test A postemergence; assay type: in vivo, Amaranthus retroflexus
Summary of the method: as §1

velvetleaf [14] = test: Test A postemergence; assay type: in vivo, Abutilon theophrasti
Summary of the method: as §1

wheat [15] = test: Test A postemergence; assay type: in vivo, Triticum aestivum
Summary of the method: as §1

corn [16] = test: Test A postemergence; assay type: in vivo, Zea mays
Summary of the method: as §1

rice = test: Test B flood; assay type: in vivo, Oryza sativa; conditions: 250 g ai/ha, visual rating on 0 to 100 scale (0 no effect, 100 complete control), 13 to 15 days
Summary of the method: (§2)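 Plants were grown to the 2-leaf stage and pots flooded to 3 cm above soil. Compounds were applied directly into the paddy water, with depth kept for the test. After 13–15 days in greenhouse, response was rated visually against controls on a 0 (no effect) to 100 (complete control) scale.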

sedge, umbrella = test: Test B flood; assay type: in vivo, Cyperus difformis; conditions: 250 g ai/ha, visual rating on 0 to 100 scale (0 no effect, 100 complete control), 13 to 15 days
Summary of the method: as §2

ducksalad = test: Test B flood; assay type: in vivo, Heteranthera limosa; conditions: 250 g ai/ha, visual rating on 0 to 100 scale (0 no effect, 100 complete control), 13 to 15 days
Description: Seeds selected from rice (Oryza sativa), sedge, umbrella (small-flower umbrella sedge Cyperus difformis), ducksalad (Heteranthera limosa), and barnyardgrass (Echinochloa crus-galli) were grown to the 2-leaf stage for testing. At time of treatment, test pots were flooded to 3 cm above the soil surface, treated by application of test compounds directly to the paddy water, and then maintained at that water depth for the duration of the test.
Treated plants and controls were maintained in a greenhouse for 13 to 15 days, after which time all species were compared to controls and visually evaluated. Plant response ratings, summarized in Table B, are based on a scale of 0 to 100 where 0 is no effect and 100 is complete control. A dash (-) response means no test result.

barnyardgrass [17] = test: Test B flood; assay type: in vivo, Echinochloa crus-galli; conditions: 250 g ai/ha, visual rating on 0 to 100 scale (0 no effect, 100 complete control), 13 to 15 days
Summary of the method: as §2

[18] = preemergence, 125 g ai/ha, visual injury approx. 10 days after treatment
[19] = preemergence, 500 g ai/ha, visual injury after approx. 10 days, 0 to 100 scale (0 no effect, 100 complete control)
[20] = 500 g ai/ha, visual injury after approx. 10 days, 0 to 100 scale (0 no effect, 100 complete control)
[21] = Postemergence, 500 g ai/ha, 0 to 100 scale (0 no effect, 100 complete control)
[22] = postemergence, 125 g ai/ha, about 10 days, visual rating on 0 to 100 scale (0 no effect, 100 complete control)
[23] = Postemergence, 125 g ai/ha, 0 to 100 scale, 0 no effect, 100 complete control
[24] = Preemergence, 500 g ai/ha, 0 to 100 scale, 0 no effect, 100 complete control
[25] = preemergence, 125 g ai/ha, visual injury, 0 to 100 scale, approx. 10 days
[26] = 125 g ai/ha, visual injury, 0 to 100 scale, approx. 10 days
[27] = Postemergence, 500 g ai/ha, visual rating after approx. 10 days, 0 to 100 scale (0 no effect, 100 complete control)

`CCc1cc(C(=O)NCC(F)(F)F)nn1Cc1nc(C(F)(F)F)no1` [Compound 184] was tested, and the “Barnyardgrass plant response rating (0 to 100 scale, 0 is no effect, 100 is complete control)” value (barnyardgrass [1]; [18]) was 0, the “Barnyardgrass plant response rating” value (barnyardgrass [1]; [19]) was 100 and the “Crabgrass, Large plant response rating (0 to 100 scale)” value (crabgrass, large [2]; [18]) was 50. For the same compound, the “Crabgrass, Large plant response rating” value (crabgrass, large [2]; [19]) was 100, the “Foxtail, Giant plant response rating (0 to 100 scale)” value (foxtail, giant [3]; [18]) was 60 and the “Foxtail, Giant plant response rating” value (foxtail, giant [3]; [19]) was 90. For the same compound, the “Morningglory plant response rating (0 to 100 scale)” value (morningglory [4]; [18]) was 20, the “Morningglory plant response rating” value (morningglory [4]; [19]) was 100 and the “Pigweed plant response rating (0 to 100 scale)” value (pigweed [5]; [18]) was 60. The “Pigweed plant response rating” value (pigweed [5]; [19]) was 100, the “Velvetleaf plant response rating (0 to 100 scale)” value (velvetleaf [6]; [18]) was 0 and the “Velvetleaf plant response rating” value (velvetleaf [6]; [19]) was 50. For the same compound, the “Wheat plant response rating (0 to 100 scale)” value (wheat [7]; 125 g ai/ha, visual injury approx. 10 days after treatment) was 0, the “Wheat plant response rating” value (wheat [7]; [20]) was 20 and the “Corn plant response rating (0 to 100 scale)” value (corn [8]; [18]) was 0. For the same compound, the “Corn plant response rating” value (corn [8]; [19]) was 30, the “Barnyardgrass plant response rating” value (barnyardgrass [9]; [21]) was 60 and the “Barnyardgrass plant response rating” value (barnyardgrass [9]; [22]) was 0. For the same compound, the “Crabgrass, Large plant response rating” value (crabgrass, large [10]; [21]) was 70, the “Crabgrass, Large plant response rating” value (crabgrass, large [10]; [22]) was 0 and the “Foxtail, Giant plant response rating” value (foxtail, giant [11]; [21]) was 40. The “Foxtail, Giant plant response rating” value (foxtail, giant [11]; [22]) was 0, the “Morningglory plant response rating” value (morningglory [12]; [23]) was 30 and the “Morningglory plant response rating” value (morningglory [12]; [21]) was 90. The “Pigweed plant response rating” value (pigweed [13]; [23]) was 60, the “Pigweed plant response rating” value (pigweed [13]; [21]) was 90 and the “Velvetleaf plant response rating” value (velvetleaf [14]; [23]) was 50. For the same compound, the “Velvetleaf plant response rating” value (velvetleaf [14]; [21]) was 60, the “Wheat plant response rating” value (wheat [15]; [23]) was 0 and the “Wheat plant response rating” value (wheat [15]; [21]) was 20. The “Corn plant response rating” value (corn [16]; [21]) was 60, the “Corn plant response rating” value (corn [16]; [22]) was 0 and the “Plant response rating, Rice” value (rice) was 0. The “Plant response rating, Sedge, Umbrella” value (sedge, umbrella) was 0, the “Plant response rating, Ducksalad” value (ducksalad) was 0 and the “Plant response rating, Barnyardgrass” value (barnyardgrass [17]) was 0.

`CCCNC(=O)c1cc(CC)n(Oc2ccnc(C(F)(F)F)c2)n1` [Compound 82] was tested, and the “Barnyardgrass plant response rating” value (barnyardgrass [1]; [24]) was 80, the “Barnyardgrass plant response rating” value (barnyardgrass [1]; [25]) was 30 and the “Crabgrass, Large plant response rating” value (crabgrass, large [2]; [24]) was 100. For the same compound, the “Crabgrass, Large plant response rating” value (crabgrass, large [2]; [25]) was 70, the “Foxtail, Giant plant response rating” value (foxtail, giant [3]; [24]) was 100 and the “Foxtail, Giant plant response rating” value (foxtail, giant [3]; [25]) was 40. The “Morningglory plant response rating” value (morningglory [4]; [24]) was 50, the “Morningglory plant response rating” value (morningglory [4]; [25]) was 10 and the “Pigweed plant response rating” value (pigweed [5]; [24]) was 60. For the same compound, the “Pigweed plant response rating” value (pigweed [5]; [25]) was 0, the “Velvetleaf plant response rating” value (velvetleaf [6]; [24]) was 20 and the “Velvetleaf plant response rating” value (velvetleaf [6]; [25]) was 0. For the same compound, the “Wheat plant response rating” value (wheat [7]; [26]) was 10, the “Wheat plant response rating” value (wheat [7]; [20]) was 60 and the “Corn plant response rating” value (corn [8]; [24]) was 60. For the same compound, the “Corn plant response rating” value (corn [8]; [25]) was 20, the “Barnyardgrass plant response rating” value (barnyardgrass [9]; [23]) was 20 and the “Barnyardgrass plant response rating” value (barnyardgrass [9]; [27]) was 50. For the same compound, the “Crabgrass, Large plant response rating” value (crabgrass, large [10]; [27]) was 60, the “Crabgrass, Large plant response rating” value (crabgrass, large [10]; [22]) was 30 and the “Foxtail, Giant plant response rating” value (foxtail, giant [11]; [27]) was 60. For the same compound, the “Foxtail, Giant plant response rating” value (foxtail, giant [11]; [22]) was 10, the “Morningglory plant response rating” value (morningglory [12]; [27]) was 60 and the “Morningglory plant response rating” value (morningglory [12]; [22]) was 50. The “Pigweed plant response rating” value (pigweed [13]; [27]) was 30, the “Pigweed plant response rating” value (pigweed [13]; [22]) was 10 and the “Velvetleaf plant response rating” value (velvetleaf [14]; [27]) was 20. For the same compound, the “Velvetleaf plant response rating” value (velvetleaf [14]; [22]) was 10, the “Wheat plant response rating” value (wheat [15]; [27]) was 50 and the “Wheat plant response rating” value (wheat [15]; [22]) was 0. The “Corn plant response rating” value (corn [16]; [27]) was 60, the “Corn plant response rating” value (corn [16]; [22]) was 20 and the “Plant response rating, Rice” value (rice) was 0. The “Plant response rating, Sedge, Umbrella” value (sedge, umbrella) was 75, the “Plant response rating, Ducksalad” value (ducksalad) was 30 and the “Plant response rating, Barnyardgrass” value (barnyardgrass [17]) was 0.

With `CCc1cc(C(=O)NC(C)C)nn1Cc1cc(C(F)(F)F)nn1CC` [Compound 120] the “Barnyardgrass plant response rating” value (barnyardgrass [1]; [25]) was 20, the “Barnyardgrass plant response rating” value (barnyardgrass [1]; [19]) was 100 and the “Crabgrass, Large plant response rating” value (crabgrass, large [2]; [25]) was 100. The “Crabgrass, Large plant response rating” value (crabgrass, large [2]; [19]) was 100, the “Foxtail, Giant plant response rating” value (foxtail, giant [3]; [25]) was 60 and the “Foxtail, Giant plant response rating” value (foxtail, giant [3]; [19]) was 90. The “Morningglory plant response rating” value (morningglory [4]; [25]) was 70, the “Morningglory plant response rating” value (morningglory [4]; [19]) was 100 and the “Pigweed plant response rating” value (pigweed [5]; [25]) was 70. For the same compound, the “Pigweed plant response rating” value (pigweed [5]; [19]) was 90, the “Velvetleaf plant response rating” value (velvetleaf [6]; [25]) was 10 and the “Velvetleaf plant response rating” value (velvetleaf [6]; [19]) was 70. The “Wheat plant response rating” value (wheat [7]; [26]) was 0, the “Wheat plant response rating” value (wheat [7]; [20]) was 40 and the “Corn plant response rating” value (corn [8]; [25]) was 20. For the same compound, the “Corn plant response rating” value (corn [8]; [19]) was 50, the “Barnyardgrass plant response rating” value (barnyardgrass [9]; [21]) was 90 and the “Barnyardgrass plant response rating” value (barnyardgrass [9]; [22]) was 30. The “Crabgrass, Large plant response rating” value (crabgrass, large [10]; [21]) was 80, the “Crabgrass, Large plant response rating” value (crabgrass, large [10]; [22]) was 30 and the “Foxtail, Giant plant response rating” value (foxtail, giant [11]; [21]) was 70. For the same compound, the “Foxtail, Giant plant response rating” value (foxtail, giant [11]; [22]) was 30, the “Morningglory plant response rating” value (morningglory [12]; [21]) was 100 and the “Morningglory plant response rating” value (morningglory [12]; [22]) was 80. For the same compound, the “Pigweed plant response rating” value (pigweed [13]; [21]) was 80, the “Pigweed plant response rating” value (pigweed [13]; [22]) was 50 and the “Velvetleaf plant response rating” value (velvetleaf [14]; [21]) was 80. For the same compound, the “Velvetleaf plant response rating” value (velvetleaf [14]; [22]) was 30, the “Wheat plant response rating” value (wheat [15]; [21]) was 30 and the “Wheat plant response rating” value (wheat [15]; [22]) was 0. For the same compound, the “Corn plant response rating” value (corn [16]; [21]) was 60, the “Corn plant response rating” value (corn [16]; [22]) was 30 and the “Plant response rating, Rice” value (rice) was 0. The “Plant response rating, Sedge, Umbrella” value (sedge, umbrella) was 80, the “Plant response rating, Ducksalad” value (ducksalad) was 40 and the “Plant response rating, Barnyardgrass” value (barnyardgrass [17]) was 0.
